Laboratory results as given in patent US20100298329A1, “TOLPERISONE AND TOLPERISONE-LIKE DRUGS FOR THE TREATMENT OF K-RAS ASSOCIATED CANCERS” (Massachusette Institute of Technology, priority 2007, published 2010).

What was measured:
[1] = tested on: mouse embryonic fibroblasts (MEFs) expressing oncogenic K-Ras; test: Cell Titer Glo cell viability screen, mutant K-Ras vs wild-type MEFs; assay type: cell-based; conditions: cell viability by intracellular ATP
Text: These MEFs have been extensively characterized at the molecular and cellular level. […] The inclusion of wild-type cells allowed for the elimination of general cytotoxic compounds and for the targeting of molecular pathways activated by oncogenic K-Ras.
(§1) The differential activity of tolperisone confirmed using other assays, such as BrdU cytoblot assay, which measures proliferation based upon incorporation of BrdU.

K-Ras mutant cells = test: BrdU cytoblot assay (proliferation by BrdU incorporation); assay type: cell-based, mouse; conditions: proliferation based upon incorporation of BrdU
Text: as §1

[2] = tested on: K-rasG12D-expressing cells; test: Additional biochemical experiments on mechanism of cell death (reactive oxygen species); assay type: cell-based; conditions: mouse and human cells, fibroblast and epithelial cell lines
Description: (§2) To study the selectivity of lanperisone for K-ras mutant cells, gene expression profiling experiments were carried out using wild-type and K-rasG12D MEFs treated with lanperisone or control DMSO. The gene expression signatures associated with lanperisone treatment were compared with those observed upon 1) manipulation of any of a number of defined biological pathways (i.e., Gene Set Enrichment Analysis or GSEA) and 2) treatment with small molecules with known targets including FDA-approved drugs (ie the Connectivity Map or CMAP). […] This mechanism of cell death occurs in both mouse and human cells, as well as in both fibroblast and epithelial cell lines.

[3] = tested on: subcutaneous K-ras G12D-expressing mouse fibroblast tumors; test: Xenograft tumor size in mice; assay type: in vivo; conditions: 100-200 mg/kg once a day, 7 consecutive days, vs matched DMSO controls
Description: The effectiveness of one or more compounds of the invention (e.g., lanperisone) was evaluated in vivo using xenografts. The effect on xenograft tumor size was evaluated in mice by administering a compound of the invention at a dose of 100-200 mg/kg once a day (e.g., via oral administration in water). The compounds were also administered intraperitoneally. Mice harboring established, subcutaneous tumors measuring at least 1 cm were treated with lanperisone for 7 consecutive days. […] These findings confirm the in vivo efficacy of lanperisone in targeting K-ras mutant tumors.

[4] = tested on: wild-type and K-rasG12D MEFs; test: Gene expression profiling (GSEA, Connectivity Map); assay type: cell-based, mouse
Description: as §2

[5] = tested on: K-Ras mutant cells (cells with Kras G12D mutation); test: FACS analysis of cell death and proliferation (Tunnel/PI staining, DNA content, BrdU staining); assay type: cell-based
Description: The effects of lanperisone on cell proliferation and cell death were evaluated based on a FACS analysis. Tunnel staining (for dying cells) and PI staining (excluded by living cells) were used to evaluate cell death in lanperisone and DMSO treated wild-type and K-Ras mutant cells (cells with a Kras G12D mutation).

Compound	concentration at which differential activity was shown (as low as) [1]	differential activity in BrdU cytoblot assay (K-Ras mutant cells)	mechanism of selective cell killing [2]	tumor size at the end of the treatment period [3]	Connectivity Map connectivities with other classes of small molecules ([4]; calcium modulators, HDAC inhibitors, HIF activators)	GSEA pathway enrichment ([4]; lanperisone-treated MEFs vs DMSO)	cell cycle phase specificity of cell death (cellular DNA content) ([5]; FACS, FIG. 3B)	cellular proliferation (BrdU staining) ([5]; FACS, FIG. 3C)	cell death (Tunnel staining / PI staining) ([5]; at 6 hours, 10 μM and 20 μM, Kras G12D cells relative to wild-type cells)
Cc1ccc(C(=O)C(C)CN2CCCCC2)cc1 (stereo not drawn) [tolperisone]	5 microns	confirmed	–	–	–	–	–	–	–
C[C@H](CN1CCCC1)C(=O)c1ccc(C(F)(F)F)cc1 [lanperisone]	–	–	selectively kills K-rasG12D-expressing cells by inducing reactive oxygen species	significantly smaller tumors than matched controls	Numerous connectivities	marked enrichment of hypoxia as well as oxidative stress pathways	not specific to any particular phase of the cell cycle	no specific defect in cellular proliferation	preferentially caused cell death in K-Ras mutant cells
